# Source: patent US4666908A, “5-Substituted pyrazolo[4,3-d]pyrimidine-7-ones and methods of use” (Warner-Lambert Company, priority 1985, dated 1987)
# Where two headings read alike, the source gives them in different places.
# Tests used:
# adenosine A1 receptor = target: T1, adenosine A1 receptor (Rattus norvegicus, UniProt P25099); experiment: Adenosine Receptor Binding - A1 Receptor Affinity (RBA1), [3H]-N6-cyclohexyladenosine displacement; settings: [3H]-CHA 1.0 nM, rat brain membranes, 25° C., one hour; read-out: RBA-1, IC50 for adenosine A1 receptor affinity
# T1 construct: Whole brain minus cerebellum and brainstem from male Long Evans rats; from tissue; host or cells: whole brain minus cerebellum and brainstem, male Long Evans rats (membranes)
# T1 sequence (P25099 1-326): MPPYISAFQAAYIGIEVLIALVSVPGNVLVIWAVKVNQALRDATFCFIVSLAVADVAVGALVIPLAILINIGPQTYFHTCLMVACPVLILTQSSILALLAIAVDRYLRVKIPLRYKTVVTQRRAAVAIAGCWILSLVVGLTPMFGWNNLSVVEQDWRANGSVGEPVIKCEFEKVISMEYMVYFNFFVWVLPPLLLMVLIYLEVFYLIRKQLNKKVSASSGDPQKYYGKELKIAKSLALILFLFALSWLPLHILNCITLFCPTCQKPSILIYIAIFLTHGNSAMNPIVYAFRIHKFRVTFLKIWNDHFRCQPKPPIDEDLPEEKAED
# Protocol: Whole brain minus cerebellum and brainstem from male Long Evans rats (150-200 g) was homogenized in 30 volumes of ice-cold 0.05M Tris-HCl buffer pH 7.7 using a Brinkman Polytron PT-10, (setting number 6 for 20 seconds) and centrifuged for ten minutes at 20,000×g (Sorvall RC-2), 4° C. The supernatant was discarded, and the pellet was resuspended and centrifuged as before. […] The homogenate was again centrifuged, and the final pellet was resuspended in ice-cold 0.05 M Tris-HCl buffer pH 7.7 to a concentration of 20 mg/ml original wet tissue weight and used immediately. […] Incubation volume was 2 ml. […] The filters were rinsed three times with 5 ml of ice cold 0.05 M Tris-HCl buffer pH 7.7. The radio-labeled ligand retained on the filter was measured by liquid scintillation spectrophotometry after shaking the filters for one hour or longer on a mechanical shaker in 10 ml of Beckman Ready-Solv HP scintillation cocktail. […] The Hill coefficient was calculated by linear regression of the line obtained by plotting the log of the bound radioligand vs the log of the [formula] The maximal number of binding sites (Bmax) was calculated from the Scatchard plot.
# Type 1 Phosphodiesterase = experiment: Phosphodiesterase (PDE) Inhibition, Type 1 Phosphodiesterase; assay type: biochemical, bovine (coronary arteries); settings: Type 1 PDE, at 10^-5 M; for % Inhibition of hydrolysis of 3H-cAMP: substrate 3H-cAMP 1.0 μM; for % Inhibition of hydrolysis of 3H-cGMP: substrate 3H-cGMP 1.0 μM
# From the text: (§1) The method of Thompson, et al (Thompson, W. J., Terasaki, W. L., Epstein, P. M., Strada, S. J., Adv. Cyclic Nucleotide Res., 10:69-92, 1979), with minor modifications, was used to isolate phosphodiesterases from vascular smooth muscle. Bovine coronary arteries (right, anterior descending, and left circumflex arteries) from hearts obtained from a local slaughterhouse were used for these studies. Arteries from two hearts were used for each isolation. Hearts were kept on ice and the arteries were dissected within two hours after the animals were sacrificed. After removing all fat and connective tissue, the arteries were everted, cut into cubes with a single edge razor blade and homogenized with a Brinkman Polytron three times at a rheostat setting of 10.0 in four volumes of the PDE isolation buffer (10 mM Tris-HCl/pH 7.5, 2 mM MgCl2, and 1 mM dithiothreitol). The resulting homogenate was sonicated (30 sec/ml homogenate) and then centrifuged at 30,000 xg for 20 minutes. This and all subsequent procedures were performed at 4° C. The resulting supernatant was filtered through four layers of gauze, and applied to a DEAE-cellulose column (30×1.5 cm), prepared as described by Cheung (Cheung, W. Y., Biochim. Biophys. Acta, 191:303-315, 1969), and equilibrated with freshly prepared 70 mM sodium acetate/5 mM 2-mercaptoethanol (pH 6.5). The column was then washed with 2-3 bed volumes of sodium acetate/2-mercaptoethanol, after which the phosphodiesterases were eluted from the column using a continuous 70-1,000 mM sodium acetate gradient (pH 6.5, containing 5 mM 2-mercaptoethanol; total volume 400 ml). The flow rate was approximately equal to 25 ml/hr. Eight ml fractions were collected and assayed for cyclic AMP- and cyclic GMP-phosphodiesterase activity in the presence and absence of 0.1 units of calmodulin and 10 mM CaCl2. Appropriate fractions were pooled and dialyzed against 70 mM sodium acetate/5 mM 2-mercaptoethanol for 20 hours.
# (§2) Following complete separation, the combined phosphodiesterase fractions were concentrated to 14% of the original volume using an Amicon ultrafiltration cell fitted with a UM-10 membrane, according to the method of Wells, et al (Wells, J. N., Baird, C. E., Wu, Y. J., Hardman, J. G., Biochim. Biophys. Acta, 384:430-442, 1975). Following concentration, the protein was then diluted to 65% with ethylene glycol monoethyl ether, and stored at -20° C.
# (§3) Phosphodiesterase activity was measured as described previously (Weishaar, P. E., Quade, M., Boyd, D., Schenden, J., Mark, S. S., Kaplan, H. R., Drug Devel. Res., 3:517-534, 1983), in a reaction medium containing 40 mM Tris-HCl (pH 8.0), 5 mM MgCl and 4 mM 2-mercaptoethanol. Unless otherwise noted, the concentration of substrate (^3 H-cyclic AMP or ^3 H-cyclic GMP) was 1.0 μM. All agents examined were dissolved in dimethyl sulfoxide (DMSO). Final concentration of the reaction medium was either 2.5% (cardiac and platelet studies) or 1.25% (smooth muscle studies). This concentration of DMSO produced an approximately 10% inhibition of enzyme activity.
# Type 3 Phosphodiesterase = experiment: Phosphodiesterase (PDE) Inhibition, Type 3 Phosphodiesterase; assay type: biochemical, bovine (coronary arteries); settings: Type 3 PDE, at 10^-5 M, substrate 3H-cAMP 1.0 μM
# From the text: as §1, §2, §3
# [1] = test system: pentobarbital-anesthetized dog; experiment: In Vivo Myocardial Inotropic Activity in Anesthetized Dog (CVAD); design: species or system dog (adult mongrel); settings: for change in vivo at 0.1 mg/kg / change in vivo at 0.31 mg/kg / change in vivo at 1 mg/kg / change in vivo at 3.1 mg/kg / change in vivo at 10 mg/kg / change in vivo at 0.3 mg/kg: Canis lupus familiaris, iv; for change in vivo at 0.31 mg/kg: 0.31 mg/kg IV; for change in vivo at 1 mg/kg: 1.00 mg/kg IV; for change in vivo at 3.1 mg/kg: 3.10 mg/kg IV; for change in vivo at 10 mg/kg: 10.00 mg/kg IV; for change in vivo at 0.3 mg/kg: 0.30 mg/kg IV
# Protocol: This test procedure is described in the following paragraphs.
# This screen consists of determining the effects of increasing intravenous doses of compound on mycardial contractility (dP/dt max of left ventricular blood pressure), heart rate, and aortic blood pressure of the pentobarbital-anesthetized dog.
# Adult mongrel dogs of either sex are anesthetized with pentobarbital, 35 mg/kg, IV, and are subsequently maintained under anesthesia with a continuous infusion of pentobarbital, 3.5 mg/kg/hour. The trachea is intubated but the animals are permitted to breathe spontaneously. A cannula is inserted into the femoral vein for administrating test agents. A Millar catheter tip pressure transducer or a fluid filled catheter is inserted into the ascending aorta via the femoral artery for measuring aortic blood pressure. A Millar catheter tip pressure transducer is passed into the left ventricle via the left carotid artery for measuring left ventricular blood pressure. Needle electrodes are placed subcutaneously for recording a lead II electrocardiogram (ECG).
# Left ventricular and aortic blood pressures are recorded on a strip chart recorder. Heart rate, using a biotachometer triggered from the R wave of the ECG, and the first derivative of left ventricular blood pressure (dP/dt), obtained with a differentiator amplifier coupled to the corresponding pressure amplifier, are also recorded. A period of at least 30 minutes is utilized to obtain control data prior to administration of test compound.
# Ethanol or dimethylacetamide can be used as solvents if adequate dilutions can be made. Appropriate vehicle controls are administered when needed.
# Each dose of the test compound is administered in a volume of […] over a period of one minute.
# [2] = 0.10 mg/kg IV, read-out: Percent Change Heart Rate
# [3] = 0.10 mg/kg IV, read-out: Percent Change Myocardial Contractility
# [4] = read-out: Percent Change Heart Rate
# [5] = read-out: Percent Change Myocardial Contractility
# [6] = intravenously at about 0.01 to 0.31 mg/kg
# [7] = 0.10 mg/kg IV, read-out: Percent Change Blood Pressure
# [8] = read-out: Percent Change Blood Pressure
Structure (SMILES),IC50 (adenosine A1 receptor) [nM],% Inhibition of hydrolysis of 3H-cAMP (Type 1 Phosphodiesterase) [%],% Inhibition of hydrolysis of 3H-cGMP (Type 1 Phosphodiesterase) [%],% Inhibition of hydrolysis of 3H-cAMP (Type 3 Phosphodiesterase) [%],"change in vivo at 0.1 mg/kg [1, 2] [%]","change in vivo at 0.1 mg/kg [1, 3] [%]","change in vivo at 0.31 mg/kg [1, 4] [%]","change in vivo at 0.31 mg/kg [1, 5] [%]","change in vivo at 1 mg/kg [1, 4] [%]","change in vivo at 1 mg/kg [1, 5] [%]","change in vivo at 3.1 mg/kg [1, 4] [%]","change in vivo at 3.1 mg/kg [1, 5] [%]","change in vivo at 0.1 mg/kg [1, 7] [%]",further results
"Cc1nn(C)c2c(=O)[nH]c(Cc3ccccc3)nc12 [Example 1, 1,3-Dimethyl-5-benzylpyrazolo[4,3-d]pyrimidine-7-one]",13100,80,71,23,2,8,3,12,6,23,14,42,–,"change in vivo at 10 mg/kg [1, 4]: 38%; change in vivo at 10 mg/kg [1, 5]: 95%; blood pressure (in words) [1, 6]: a moderate reduction in blood pressure; cardiac contractility (in words) [1, 6]: dose related significant increases in cardiac contractility; heart rate (in words) [1, 6]: only low or minimal changes in heart rate"
"CCn1nc(C)c2nc(-c3ccncc3)[nH]c(=O)c21 [Example 3, 1-Ethyl-3-methyl-5-(4-pyridyl)pyrazolo[4,3-d]pyrimidine-7-one]",237,33,19,55,4,12,–,–,-1,47,16,91,2,"change in vivo at 0.3 mg/kg [1, 8]: 2%; change in vivo at 0.3 mg/kg [1, 4]: 7%; change in vivo at 0.3 mg/kg [1, 5]: 20%; change in vivo at 1 mg/kg [1, 8]: 2%; change in vivo at 3.1 mg/kg [1, 8]: 8%"
"CCn1nc(C)c2nc(-c3ccccc3)[nH]c(=O)c21 [Example 5, 1-Ethyl-3-methyl-5-phenylpyrazolo[4,3-d]pyrimidine-7-one]",670,29,29,56,7,10,–,–,43,77,50,100,2,"change in vivo at 1 mg/kg [1, 8]: 1%; change in vivo at 3.1 mg/kg [1, 8]: 1%"

# Continued, in another order:
IC50 (adenosine A1 receptor) [nM],% Inhibition of hydrolysis of 3H-cAMP (Type 1 Phosphodiesterase) [%],% Inhibition of hydrolysis of 3H-cGMP (Type 1 Phosphodiesterase) [%],% Inhibition of hydrolysis of 3H-cAMP (Type 3 Phosphodiesterase) [%],Structure (SMILES),"change in vivo at 0.1 mg/kg [1, 2] [%]","change in vivo at 0.1 mg/kg [1, 3] [%]","change in vivo at 0.31 mg/kg [1, 4] [%]","change in vivo at 0.31 mg/kg [1, 5] [%]","change in vivo at 1 mg/kg [1, 4] [%]","change in vivo at 1 mg/kg [1, 5] [%]","change in vivo at 3.1 mg/kg [1, 4] [%]","change in vivo at 3.1 mg/kg [1, 5] [%]","change in vivo at 0.1 mg/kg [1, 7] [%]",further results
953,5,13,20,"Cc1nn(C)c2c(=O)[nH]c(-c3ccncc3)nc12 [Example 2, 1,3-Dimethyl-5-(4-pyridyl)-pyrazolo[4,3-d]pyrimidine-7-one]",1,4,1,7,28,53,49,121,0,–
3090,6,4,3,"Cc1nn(C)c2c(=O)[nH]c(-c3cccnc3)nc12 [Example 4, 1,3-Dimethyl-5-(3-pyridyl)pyrazolo[4,3-d]pyrimidine-7-one]",0,2,1,7,4,27,9,55,–,Percent Change Blood Pressure ([1]; 0.10 mg/kg IV): 0/0
1020,6,14,35,"Cc1nn(C)c2c(=O)[nH]c(-c3ccccc3)nc12 [Example 6, 1,3-Dimethyl-5-phenylpyrazolo[4,3-d]pyrimidine-7-one]",-1,4,-4,3,7,20,37,45,–,–
314,16,12,5,"Cc1nn(C)c2c(=O)[nH]c(-c3ccc(Cl)cc3N)nc12 [Example 19, 1,3-Dimethyl-5-(2-amino-4-chlorophenyl)pyrazolo[4,3-d]pyrimidine-7-one]",–,–,–,–,–,–,–,–,–,–
